From patent publication US12708640B2, “Synergistic nutritional compositions for treating vestibular associated neurodegenerative diseases” (CELAGENEX RESEARCH (INDIA) PVT. LTD., priority 2021, dated 2026)

Experiments:
Format in all cases: in vivo, Albino Wistar rat
[1] = Rat body weight in the sodium arsanilate vestibular dysfunction study; details: rats, group value
Description: (§1) “Evaluation of test substance on sodium arsanilate induced vestibular dysfunction (Vertigo disorder) in wistar rats”.
(§2) • Test Species: Rat • Strain: Albino Wistar • Sex: Male/Female • Age: 6-8 Weeks • Body Weight: 180-200 g • Source: In house breed • Total No. of Animals: 42 Animals (7 groups of 6 animals each) • Feed: Normal chow diet (Purina lab diet 5L79 Rat and Mouse 18%) (PMI Nutrition International) Environmental Conditions:
(§3) All the animals were acclimatized for at least 5 days under controlled environmental condition. Total 42 animals were divided into seven groups consisting of 6 animals per group. Normal control (G1) group receiving vehicle, disease control (G2) group receiving sodium arsanilate injection only, standard group (G3) receiving reference standard (vertin) and treatment groups G4, G5, G6 & G7 were treated with the test substances. All the groups (except normal control group) were induced with sodium arsanilate via intratymphanic injection. All the treatment groups were administered daily for 7 consecutive days.
Individual body weights were recorded at receipt, on the day of randomization, on the first day of treatment before dosing and weekly once thereafter throughout the treatment period. The body weight changes for all the animals were calculated and reported along with the body weight data.

[2] = system: sodium arsanilate induced vestibular dysfunction (Vertigo disorder) in wistar rats; test: Open field test
Description: as §1
(§4) Vestibular dysfunction was induced in rats by intratympanic injection of sodium arsanilate an ototoxic compound. Sodium arsanilate is an arsenic derivative and intratympanic injection result was vestibular nerve degeneration in brain stem with concomitant loss of labyrinthine righting and reduced postural support with exaggerated head dorsiflexion.
as §3
The open-field was circular, with a diameter of 90 cm, and enclosed by a wall 30 cm high. The floor and wall of the open-field was black and the floor was divided into 25 equal area sections by thin white lines. The floor was covered with a transparent plastic coating. The open-field apparatus was located inside a large wooden frame which surrounded on all sides by black curtains. The field was illuminated by two 60-W fluorescent lights located 100 cm above the floor.
At the start of each session the rats were placed in one of the peripheral sections of the open-field and the animal's behavior was monitored by an observer for 10 consecutive minutes. […] At the end of each session the rat was returned to its home cage and the floor of the open-field was cleaned and sponged over with a weak vinegar solution to remove any residual odors.

[3] = system: sodium arsanilate induced vestibular dysfunction (Vertigo disorder) in wistar rats; test: Contact righting reflex
Description: as §1, §4, §3
The rats were placed in a syringe core tube in a supine position, following which the recovery time for position correction to be recorded. Normal rats turned over their body position in a few seconds.

[4] = system: sodium arsanilate induced vestibular dysfunction (Vertigo disorder) in wistar rats; test: Air righting reflex (air reflecting index)
Description: as §1, §4, §3
A sponge was spread on a flat surface and the animals were placed in a supine position in the air 50 cm away above the sponge, following which the animal was dropped horizontally.
Four-legged smooth landing on the ground was considered as positive (normal animal), whereas the body or other regions landing first was considered vestibular dysfunction animals. The positive landing rate (%) of each rat in each group was recorded.

[5] = Rat feed consumption in the sodium arsanilate vestibular dysfunction study; details: rats, group value
Description: as §1, §2, §3
The feed consumption was calculated and reported on a daily basis throughout the study period.

[6] = open field test, wrt. disease control G2

SMILES: O=c1ccn([C@@H]2O[C@H](COP(=O)(O)O)[C@@H](O)[C@H]2O)c(=O)[nH]1 [Group 5, Uridine monophosphate]
- Body Weight, End of the treatment ([1]; after 7 days daily treatment): 190.08 gm
- Body Weight, Initial ([1]; initial): 189.02 gm
- Ambulation Score [the number of open-field sections entered by the rat] ([2]; animal 1): 200
- Defecation [the number of fecal boli deposited in the open-field] ([2]; animal 1): 4
- Grooming [the number of grooming bouts exhibited by the rat] ([2]; animal 1): 2
- Rearing Responses [the number of times the animal raised both forefeet off the floor and extended its body] ([2]; animal 1): 3
- Ambulation Score [the number of open-field sections entered by the rat] ([2]; animal 2): 180
- Defecation [the number of fecal boli deposited in the open-field] ([2]; animal 2): 2
- Grooming [the number of grooming bouts exhibited by the rat] ([2]; animal 2): 4
- Rearing Responses [the number of times the animal raised both forefeet off the floor and extended its body] ([2]; animal 2): 4
- Ambulation Score [the number of open-field sections entered by the rat] ([2]; animal 3): 190
- Defecation [the number of fecal boli deposited in the open-field] ([2]; animal 3): 3
- Grooming [the number of grooming bouts exhibited by the rat] ([2]; animal 3): 3
- Rearing Responses [the number of times the animal raised both forefeet off the floor and extended its body] ([2]; animal 3): 3
- Ambulation Score [the number of open-field sections entered by the rat] ([2]; animal 4): 160
- Defecation [the number of fecal boli deposited in the open-field] ([2]; animal 4): 4
- Grooming [the number of grooming bouts exhibited by the rat] ([2]; animal 4): 3
- Rearing Responses [the number of times the animal raised both forefeet off the floor and extended its body] ([2]; animal 4): 4
- Ambulation Score [the number of open-field sections entered by the rat] ([2]; animal 5): 200
- Defecation [the number of fecal boli deposited in the open-field] ([2]; animal 5): 3
- Grooming [the number of grooming bouts exhibited by the rat] ([2]; animal 5): 4
- Rearing Responses [the number of times the animal raised both forefeet off the floor and extended its body] ([2]; animal 5): 3
- Ambulation Score [the number of open-field sections entered by the rat] ([2]; animal 6): 190
- Defecation [the number of fecal boli deposited in the open-field] ([2]; animal 6): 4
- Grooming [the number of grooming bouts exhibited by the rat] ([2]; animal 6): 4
- Rearing Responses [the number of times the animal raised both forefeet off the floor and extended its body] ([2]; animal 6): 4
- Ambulation Score [the number of open-field sections entered by the rat], Average ([2]; group average of 6 animals): 186.67
- Defecation [the number of fecal boli deposited in the open-field], Average ([2]; group average of 6 animals): 3.33
- Grooming [the number of grooming bouts exhibited by the rat], Average ([2]; group average of 6 animals): 3.33
- Rearing Responses [the number of times the animal raised both forefeet off the floor and extended its body], Average ([2]; group average of 6 animals): 3.50
- % Improvement in Ambulation score wrt. G2 [2, 6]: 25.83%
- % Improvement in Defecation wrt. G2 [2, 6]: 23.08%
- % Improvement in Grooming wrt. G2 [2, 6]: 57.45%
- % Improvement in Rearing Responses wrt. G2 [2, 6]: 32.81%
- Contact righting reflex (time) ([3]; animal 1, recovery time for position correction): 30 s
- Contact righting reflex (time) ([3]; animal 2, recovery time for position correction): 29 s
- Contact righting reflex (time) ([3]; animal 3, recovery time for position correction): 28 s
- Contact righting reflex (time) ([3]; animal 4, recovery time for position correction): 27 s
- Contact righting reflex (time) ([3]; animal 5, recovery time for position correction): 30 s
- Contact righting reflex (time) ([3]; animal 6, recovery time for position correction): 26 s
- Contact righting reflex (time), Average ([3]; group average of 6 animals): 28.33 s
- contact righting reflex, improvement (wrt. the Disease Control) ([3]; wrt. the Disease Control): ≤ 30%
- Air Righting Reflex (% successfully righted within 5 s) ([4]; animal 1): 40%
- Air Righting Reflex, Successful out of 5 ([4]; animal 1, end of 7-day treatment): 2
- Air Righting Reflex (% successfully righted within 5 s) ([4]; animal 2): 40%
- Air Righting Reflex, Successful out of 5 ([4]; animal 2, end of 7-day treatment): 2
- Air Righting Reflex (% successfully righted within 5 s) ([4]; animal 3): 20%
- Air Righting Reflex, Successful out of 5 ([4]; animal 3, end of 7-day treatment): 1
- Air Righting Reflex (% successfully righted within 5 s) ([4]; animal 4): 40%
- Air Righting Reflex, Successful out of 5 ([4]; animal 4, end of 7-day treatment): 2
- Air Righting Reflex (% successfully righted within 5 s) ([4]; animal 5): 20%
- Air Righting Reflex, Successful out of 5 ([4]; animal 5, end of 7-day treatment): 1
- Air Righting Reflex (% successfully righted within 5 s) ([4]; animal 6): 40%
- Air Righting Reflex, Successful out of 5 ([4]; animal 6, end of 7-day treatment): 2
- Air Righting Reflex (% of Rats that successfully righted themselves within 5 s), Average ([4]; group average of 6 animals): 33.33%
- Feed Consumption, 0 day ([5]; 0 day): 15.50 gm
- Feed Consumption, 7th day ([5]; 7th day): 16.67 gm
